Measured values reported in PMC9414986, “Phytochemical Characterization of Cannabis sativa L. Chemotype V Reveals Three New Dihydrophenanthrenoids That Favorably Reprogram Lipid Mediator Biosynthesis in Macrophages” (Plants, 2022).
One block for each molecule: values may come before it.

Columns and labels:
5-LOX product formation = 5-LOX product formation in activated human M1 macrophages (metabololipidomics); conditions: Macrophage, cell-based, Staphylococcus aureus-conditioned medium 1.0%, 3 h, 15 min preincubation, read-out: IC50 for inhibition of 5-LOX product formation
Text: (§1) Leukocyte reduction system chamber (LRSC) filters were provided by the Central Institute for Blood Transfusion and Immunological Department of Tirol Kliniken GmbH (Austria) with the informed consent of the volunteers. Only healthy blood donors between 18 and 65 years of age without medication for chronic diseases, fever, or deficiency symptoms and after physical examinations by trained medical personnel were included in the study. Human peripheral blood mononuclear cells (PBMC) were freshly isolated from LRSC filters. After dilution of the cell concentrates in PBS pH 7.4 containing 12.5 mM citrate and 14 mM glucose (130 mL, 37 °C), immune cells were separated via isopycnic density gradient centrifugation (400× g, 20 min, RT) using Histopaque®-1077 (Sigma-Alrich, St. Louis, MO, USA). PBMC were obtained from the interphase after hypotonic lysis of erythrocytes using water (2–5 mL) and two consecutive washing steps with PBS pH 7.4 (50 mL) (270× g, 5 min, RT). […]
(§2) Lipid mediator biosynthesis in human M1/M2 macrophages (1.5 mL PBS pH 7.4 plus 1 mM CaCl2) was stimulated with Staphylococcus aureus (LS1)-conditioned medium (1.0%, 3 h) after 15 min preincubation with DMSO (0.1%) or test compounds and stopped by addition of ice-cold MeOH (2.5 mL) containing deuterium-labeled internal standards (200 pg d8-5S-hydroxyeicosatetraenoic acid (HETE), d4-leukotriene (LT)B4, d5-lipoxin (LX)A4, d5-resolvin (Rv)D2, d4-prostaglandin (PG)E2, and 2000 pg d8-arachidonic acid (Cayman Chemical, Ann Arbor, MI, USA)). […] The gradient of mobile phase A (water/MeOH, 90/10, 0.01% acetic acid) and mobile phase B (MeOH, 0.01% acetic acid) was ramped at a flow rate of 0.35 mL/min from 35.6% to 84.4% B within 12.5 min followed by 5 min of isocratic elution at 97.8% B. Lipid mediators and fatty acids were analyzed in the negative ion mode by scheduled multiple reaction monitoring (detection window: 120 s) using a QTRAP 6500^+ Mass Spectrometer (Sciex), which was equipped with an electrospray ionization source. […]

human recombinant 5-LOX = biological target: T1, human recombinant 5-LOX (Homo sapiens, UniProt P09917); assay: cell-free 5-lipoxygenase activity assay; assay type: biochemical; conditions: arachidonic acid 20 µM, 10 min at 37 °C, read-out: IC50 for inhibition of human recombinant 5-LOX
T1 construct: purchased Cayman Chemical
T1 sequence (P09917 1-674): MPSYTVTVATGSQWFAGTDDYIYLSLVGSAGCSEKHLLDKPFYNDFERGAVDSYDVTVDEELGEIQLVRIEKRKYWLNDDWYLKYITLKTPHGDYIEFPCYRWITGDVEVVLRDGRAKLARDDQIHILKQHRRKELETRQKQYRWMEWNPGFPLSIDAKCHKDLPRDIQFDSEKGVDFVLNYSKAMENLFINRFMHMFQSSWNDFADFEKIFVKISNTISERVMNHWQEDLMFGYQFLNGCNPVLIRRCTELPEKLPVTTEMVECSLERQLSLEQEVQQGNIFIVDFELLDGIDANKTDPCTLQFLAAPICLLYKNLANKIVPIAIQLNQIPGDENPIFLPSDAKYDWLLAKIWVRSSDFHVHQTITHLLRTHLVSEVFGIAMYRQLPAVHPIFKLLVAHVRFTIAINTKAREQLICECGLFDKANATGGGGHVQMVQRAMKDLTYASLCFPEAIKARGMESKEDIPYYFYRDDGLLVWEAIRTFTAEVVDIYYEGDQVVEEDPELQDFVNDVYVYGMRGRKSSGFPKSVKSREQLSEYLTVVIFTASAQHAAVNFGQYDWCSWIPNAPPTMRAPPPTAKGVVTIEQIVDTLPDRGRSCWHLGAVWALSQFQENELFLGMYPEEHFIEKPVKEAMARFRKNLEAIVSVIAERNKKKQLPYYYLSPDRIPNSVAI
Description: Human recombinant 5-LOX (Cayman Chemical, 10 U) was pre-treated with vehicle (DMSO, 0.1%) or test compounds for 10 min in 1 mL PBS pH 7.4, 1 mM EDTA and 1 mM ATP on ice before CaCl2 (2 mM) and arachidonic acid (20 µM) were added. After 10 min at 37 °C, the reaction was stopped by the addition of ice-cold MeOH (1 mL) and PGB1 (2 ng) as internal standard. Clean-Up C-18 Endcapped SPE cartridges (100 mg, 10 mL, UCT, Bristol, PA, USA) were conditioned with MeOH (1 mL, twice) and equilibrated with water (1 mL). After acidification (530 µL PBS plus 60 mM HCl) and centrifugation (750× g, 10 min, 4 °C), supernatants containing lipid mediators were loaded onto the columns, which were first washed with water (1 mL) and then MeOH/water (25:75, 1 mL). After elution of lipid mediators with MeOH (300 µL), water (120 µL) was added and samples were centrifuged (21,100× g, 10 min, 4 °C) and subjected to LC-PDA analysis. 5-LOX products, including all trans-isomers of LTB4 and 5-HETE, were separated at 40 °C and a flow rate of 0.45 mL/min on a Kinetex C-18 LC column (100Å, 1.3 μm, 2.1 × 50 mm, Phenomenex, Torrance, CA) using a Nexera X2 UHPLC system (Shimadzu, Kyoto, Japan). The step gradient of mobile phase A (water/MeOH, 50/50, 0.05% trifluoroacetic acid) and mobile phase B (MeOH, 0.05% trifluoroacetic acid) was kept at 14% B for 2 min, followed by 46% B for 2 min and 90% B for another 2 min. LTB4 isomers and 5-HETE were detected with a photodiode array detector (SPD-M20A, Shimadzu, Kioto, Japan) at 280 nm and 235 nm, respectively. Lipid quantitieswere calculated by internal calibration using PGB1 as reference standard.
Data are expressed as mean ± s.e.m. and single data from n = 4–8 independent experiments. […] Data were analyzed using Microsoft Excel (Office 365, Version: 2204, Albuquerque, New Mexico), and statistics were performed using GraphPad Prism (GraphPad Software version 9.3.1, Dotmatics, Boston, UK). IC50 values were calculated by non-linear regression (GraphPad Prism 9.3.1).

COX product formation = COX product formation in activated human M1 macrophages (metabololipidomics); assay type: cell-based
Text: as §1, §2

human M2 macrophages = assay: lipid mediator profile (SPMs, precursors, free PUFAs) in activated human M2 macrophages; assay type: cell-based
Text: Leukocyte reduction system chamber (LRSC) filters were provided by the Central Institute for Blood Transfusion and Immunological Department of Tirol Kliniken GmbH (Austria) with the informed consent of the volunteers. Only healthy blood donors between 18 and 65 years of age without medication for chronic diseases, fever, or deficiency symptoms and after physical examinations by trained medical personnel were included in the study. Human peripheral blood mononuclear cells (PBMC) were freshly isolated from LRSC filters. After dilution of the cell concentrates in PBS pH 7.4 containing 12.5 mM citrate and 14 mM glucose (130 mL, 37 °C), immune cells were separated via isopycnic density gradient centrifugation (400× g, 20 min, RT) using Histopaque®-1077 (Sigma-Alrich, St. Louis, MO, USA). PBMC were obtained from the interphase after hypotonic lysis of erythrocytes using water (2–5 mL) and two consecutive washing steps with PBS pH 7.4 (50 mL) (270× g, 5 min, RT).
To differentiate monocytes, which are the predominant cell type in PBMC, towards M0 macrophages, they were first stimulated with 20 ng/mL GM-CSF or M-CSF (HiSS Diagnostics GmbH, Freiburg, Germany) for 6 days in macrophage medium (RPMI 1640 supplemented with 10% FCS, 2 mmol/L L-glutamine, 100 U/mL penicillin and 100 μg/mL streptomycin). These monocyte-derived macrophages were polarized for another 48 h in macrophage medium with 100 ng/mL lipopolysaccharide and 20 ng/mL interferon-γ (Peprotech, Hamburg, Germany) to obtain M1 or with 20 ng/mL interleukin-4 (Peprotech, Hamburg, Germany) to obtain M2 phenotypes.
Lipid mediator biosynthesis in human M1/M2 macrophages (1.5 mL PBS pH 7.4 plus 1 mM CaCl2) was stimulated with Staphylococcus aureus (LS1)-conditioned medium (1.0%, 3 h) after 15 min preincubation with DMSO (0.1%) or test compounds and stopped by addition of ice-cold MeOH (2.5 mL) containing deuterium-labeled internal standards (200 pg d8-5S-hydroxyeicosatetraenoic acid (HETE), d4-leukotriene (LT)B4, d5-lipoxin (LX)A4, d5-resolvin (Rv)D2, d4-prostaglandin (PG)E2, and 2000 pg d8-arachidonic acid (Cayman Chemical, Ann Arbor, MI, USA)). Samples were incubated at −20 °C for at least 1 h to precipitate proteins and then centrifuged (750× g, 10 min, 4 °C). The supernatant was mixed with acidified water (7 mL, pH 3.5) and loaded onto solid phase cartridges (Sep-Pak® Vac 6cc 500 mg/6 mL C-18 (Waters, Milford, MA, USA)), which were conditioned with MeOH (6 mL) and equilibrated with water (2 mL). Columns were washed with water (6 mL) and hexane (6 mL, 4 °C) before lipid mediators were eluted with methyl formiate (6 mL). The organic phase was evaporated to dryness using a TurboVap LV (Biotage, Uppsala, Sweden) and the remaining lipids were dissolved in MeOH/water (1:1), centrifuged twice (21,100× g, 4 °C, 5 min), and subjected to UPLC-MS/MS analysis. Chromatographic separation of lipid mediators was carried out at 55°C on an Acquity UPLC BEH C-18 column (130Å, 1.7 μm, 2.1 × 100 mm, Waters) using an ExionLC AD UHPLC system (Sciex, Framingham, MA, USA). The gradient of mobile phase A (water/MeOH, 90/10, 0.01% acetic acid) and mobile phase B (MeOH, 0.01% acetic acid) was ramped at a flow rate of 0.35 mL/min from 35.6% to 84.4% B within 12.5 min followed by 5 min of isocratic elution at 97.8% B. Lipid mediators and fatty acids were analyzed in the negative ion mode by scheduled multiple reaction monitoring (detection window: 120 s) using a QTRAP 6500^+ Mass Spectrometer (Sciex), which was equipped with an electrospray ionization source. The curtain gas was set to 40 psi, the collision gas to medium, the ion spray voltage to −4000 V, the heated capillary temperature to 500 °C, and the sheath and auxiliary gas pressure to 40 psi. Transitions selected for quantitation and the corresponding declustering potential (DP), entrance potential (EP), collision energy (CE) and collision cell exit potential (CXP) are listed in Table 4. […]

12/15-LOX product levels = assay: 12- and 15-LOX product levels in activated macrophages; assay type: cell-based, human
Text: (§3) Leukocyte reduction system chamber (LRSC) filters were provided by the Central Institute for Blood Transfusion and Immunological Department of Tirol Kliniken GmbH (Austria) with the informed consent of the volunteers. Only healthy blood donors between 18 and 65 years of age without medication for chronic diseases, fever, or deficiency symptoms and after physical examinations by trained medical personnel were included in the study. Human peripheral blood mononuclear cells (PBMC) were freshly isolated from LRSC filters. […]
(§4) Lipid mediator biosynthesis in human M1/M2 macrophages (1.5 mL PBS pH 7.4 plus 1 mM CaCl2) was stimulated with Staphylococcus aureus (LS1)-conditioned medium (1.0%, 3 h) after 15 min preincubation with DMSO (0.1%) or test compounds and stopped by addition of ice-cold MeOH (2.5 mL) containing deuterium-labeled internal standards (200 pg d8-5S-hydroxyeicosatetraenoic acid (HETE), d4-leukotriene (LT)B4, d5-lipoxin (LX)A4, d5-resolvin (Rv)D2, d4-prostaglandin (PG)E2, and 2000 pg d8-arachidonic acid (Cayman Chemical, Ann Arbor, MI, USA)). […] Transitions selected for quantitation and the corresponding declustering potential (DP), entrance potential (EP), collision energy (CE) and collision cell exit potential (CXP) are listed in Table 4. […]

[1] = test system: soluble epoxide hydrolase (sEH); assay: cellular sEH activity (DHETs/EETs ratio) in human M2 macrophages; assay type: cell-based
Text: as §3, §4

[2] = test system: microsomal prostaglandin E2 synthase (mPGES)-1; set-up: method as in doi:10.1016/j.phanu.2014.05.001; conditions: cited from earlier work
cell apoptosis = test system: cell apoptosis; set-up: method as in PMID 18840408, PMID 18262737; conditions: cited from earlier work
[3] = test system: 5-lipoxygenase (5-LOX) pathway; set-up: method as in PMID 28165233; conditions: cited from earlier work

IC50 (5-LOX product formation): 3.8 µM
IC50 (human recombinant 5-LOX): 6.9 µM
Structure (SMILES): COc1cc(O)c2c(c1)CCc1cc(OC)c(OC)c(O)c1-2 [Compound 9, 9,10-dihydro-2,3,7-trimethoxy-4,5-phenanthrenediol]
effect on COX product formation (COX product formation): substantially elevated
D-series Rv (RvDs) levels (human M2 macrophages): raised
formation of SPM precursors, including 17-HDHA, 15-HEPE and 15-HETE (human M2 macrophages): enhanced formation
maresin 2 (MaR2) levels (human M2 macrophages): raised
production of specialized pro-resolving mediators (SPMs) (human M2 macrophages): stimulated
protectins (PDs) levels (human M2 macrophages): raised

IC50 (5-LOX product formation): 1 µM
IC50 (human recombinant 5-LOX): 20.1 µM
IC50 (COX product formation; Macrophage, cell-based, Staphylococcus aureus-conditioned medium, read-out: IC50 for inhibition of COX product (prostanoid) formation): 2 µM
ratio of DHETs/EETs (indicator of sEH activity) [1]: significantly elevated
Structure (SMILES): COC1=CC(=O)C2=C(C1=O)c1c(cc(OC)cc1OC)CC2 [Compound 5, 9,10-dihydro-3,5,7-trimethoxy-1,4-phenanthrenequinone]
D-series Rv (RvDs) levels (human M2 macrophages): but not RvDs levels
maresin 2 (MaR2) levels (human M2 macrophages): elevated
protectins (PDs) levels (human M2 macrophages): elevated
release of polyunsaturated fatty acids (PUFAs) (human M2 macrophages): decreased
12/15-LOX product levels (12/15-LOX product levels): slightly but significantly lowered

Structure (SMILES): COc1cc(-c2cc(=O)c3c(O)c(CC=C(C)C)c(O)cc3o2)ccc1O [Compound 8, cannflavin B]
inhibition of mPGES-1 [2]: potent inhibitors

Structure (SMILES): COc1cc(-c2cc(=O)c3c(O)c(C/C=C(\C)CCC=C(C)C)c(O)cc3o2)ccc1O [Compound 7a, cannflavin A]
inhibition of mPGES-1 [2]: potent inhibitors

IC50 (5-LOX product formation): 8.5 µM
IC50 (human recombinant 5-LOX): 4.6 µM
ratio of DHETs/EETs (indicator of sEH activity) [1]: only increased by trend
Structure (SMILES): COc1cc2c(c(OC)c1O)-c1c(ccc(OC)c1O)CC2 [Compound 10, 9,10-dihydro-2,4,6-trimethoxy-3,5-phenanthrenediol]
effect on COX product formation (COX product formation): substantially elevated
maresin 2 (MaR2) levels (human M2 macrophages): selectively increased
production of specialized pro-resolving mediators (SPMs) (human M2 macrophages): stimulated

Structure (SMILES): COC1=CC(=O)c2ccc3cc(OC)cc(O)c3c2C1=O [Compound 4, denbinobin]
cell apoptosis induction (cell apoptosis): cell apoptosis-inducing properties

Structure (SMILES): COc1cc(O)cc(CCc2ccc(OC)c(O)c2CC=C(C)C)c1 [Compound 6, canniprene]
production of inflammatory eicosanoids via the 5-LOX pathway [3]: potently inhibits
